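A five-concentration, 48-hour dose response in 96-well plates underlies each endpoint, interpolated linearly between surrounding concentrations. Abbreviation: GI50, concentration required for 50% inhibition of growth. TGI denotes the concentration required for complete inhibition of growth.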
Experiments:
Test in all cases: inhibition of tumour cell growth, NCI panel, 48 h
SNB-19 CNS = tested on: SNB-19 CNS
786-0 renal = tested on: 786-0 renal
CCRF-CEM leukemia = tested on: CCRF-CEM leukemia
SF-295 CNS = tested on: SF-295 CNS
SK-MEL-28 melanoma = tested on: SK-MEL-28 melanoma
KM12 colon = tested on: KM12 colon
BT-549 breast = tested on: BT-549 breast
A498 renal = tested on: A498 renal
LOX IMVI melanoma = tested on: LOX IMVI melanoma
M14 melanoma = tested on: M14 melanoma
HOP-62 NSCLC = tested on: HOP-62 NSCLC
MDA-MB-231 breast = tested on: MDA-MB-231 breast
T-47D breast = tested on: T-47D breast
HL-60(TB) leukemia = tested on: HL-60(TB) leukemia
SK-MEL-5 melanoma = tested on: SK-MEL-5 melanoma
HOP-92 NSCLC = tested on: HOP-92 NSCLC
UACC-257 melanoma = tested on: UACC-257 melanoma
K-562 leukemia = tested on: K-562 leukemia
OVCAR-3 ovarian = tested on: OVCAR-3 ovarian
SN12C renal = tested on: SN12C renal
HS 578T breast = tested on: HS 578T breast
OVCAR-8 ovarian = tested on: OVCAR-8 ovarian
HT29 colon = tested on: HT29 colon
SF-539 CNS = tested on: SF-539 CNS
MDA-MB-435 = tested on: MDA-MB-435
SK-OV-3 ovarian = tested on: SK-OV-3 ovarian
SNB-75 CNS = tested on: SNB-75 CNS
SF-268 CNS = tested on: SF-268 CNS
OVCAR-4 ovarian = tested on: OVCAR-4 ovarian
NCI-H226 lung = tested on: NCI-H226 lung
ACHN renal = tested on: ACHN renal
HCT-15 colon = tested on: HCT-15 colon
COLO 205 colon = tested on: COLO 205 colon
RXF 393 renal = tested on: RXF 393 renal
A549 NSCLC = tested on: A549 NSCLC
UACC-62 melanoma = tested on: UACC-62 melanoma
HCT-116 colon = tested on: HCT-116 colon
RPMI-8226 leukemia = tested on: RPMI-8226 leukemia
HCC-2998 colon = tested on: HCC-2998 colon
MOLT-4 leukemia = tested on: MOLT-4 leukemia
NCI-H522 lung = tested on: NCI-H522 lung
SR leukemia = tested on: SR leukemia
UO-31 renal = tested on: UO-31 renal
EKVX NSCLC = tested on: EKVX NSCLC
NCI-H460 lung = tested on: NCI-H460 lung
MALME-3M melanoma = tested on: MALME-3M melanoma
PC-3 prostate = tested on: PC-3 prostate
MCF7 breast = tested on: MCF7 breast
SK-MEL-2 melanoma = tested on: SK-MEL-2 melanoma
TK-10 renal = tested on: TK-10 renal
OVCAR-5 ovarian = tested on: OVCAR-5 ovarian
IGROV1 ovarian = tested on: IGROV1 ovarian
U251 CNS = tested on: U251 CNS
SW-620 colon = tested on: SW-620 colon

With `Cc1cc(N(CCNc2ccnc3cc(Cl)ccc23)Cc2cccs2)nc(Cl)n1` the GI50 (SNB-19 CNS) was 2110 nM, the TGI (SNB-19 CNS) was 5620 nM and the GI50 (786-0 renal) was 429 nM. The TGI (786-0 renal) was 1630 nM, the GI50 (CCRF-CEM leukemia) was 2070 nM and the TGI (CCRF-CEM leukemia) was 5410 nM. For the same molecule, the GI50 (SF-295 CNS) was 1320 nM, the TGI (SF-295 CNS) was 2770 nM and the GI50 (SK-MEL-28 melanoma) was 1610 nM. It also gave a TGI (SK-MEL-28 melanoma) of 3180 nM, a GI50 (KM12 colon) of 1690 nM and a TGI (KM12 colon) of 3290 nM. For the same molecule, the GI50 (BT-549 breast) was 1870 nM, the TGI (BT-549 breast) was 3940 nM and the GI50 (A498 renal) was 1680 nM. For the same molecule, the TGI (A498 renal) was 4150 nM, the GI50 (LOX IMVI melanoma) was 1470 nM and the TGI (LOX IMVI melanoma) was 2890 nM. It also gave a GI50 (M14 melanoma) of 1540 nM, a TGI (M14 melanoma) of 3190 nM and a GI50 (HOP-62 NSCLC) of 1650 nM. The TGI (HOP-62 NSCLC) was 3650 nM, the GI50 (MDA-MB-231 breast) was 1490 nM and the TGI (MDA-MB-231 breast) was 3060 nM. For the same molecule, the GI50 (T-47D breast) was 1120 nM, the TGI (T-47D breast) was 2880 nM and the GI50 (HL-60(TB) leukemia) was 1990 nM. For the same molecule, the TGI (HL-60(TB) leukemia) was 3840 nM, the GI50 (SK-MEL-5 melanoma) was 1740 nM and the TGI (SK-MEL-5 melanoma) was 3170 nM. The GI50 (HOP-92 NSCLC) was 1160 nM, the TGI (HOP-92 NSCLC) was 2610 nM and the GI50 (UACC-257 melanoma) was 1840 nM. It also gave a TGI (UACC-257 melanoma) of 3560 nM, a GI50 (K-562 leukemia) of 1020 nM and a TGI (K-562 leukemia) of 3470 nM. The GI50 (OVCAR-3 ovarian) was 1430 nM, the TGI (OVCAR-3 ovarian) was 2830 nM and the GI50 (SN12C renal) was 1580 nM. For the same molecule, the TGI (SN12C renal) was 3190 nM, the GI50 (HS 578T breast) was 2100 nM and the TGI (HS 578T breast) was 4680 nM. For the same molecule, the GI50 (OVCAR-8 ovarian) was 2210 nM, the TGI (OVCAR-8 ovarian) was 5330 nM and the GI50 (HT29 colon) was 1450 nM. It also gave a TGI (HT29 colon) of 3100 nM, a GI50 (SF-539 CNS) of 1830 nM and a TGI (SF-539 CNS) of 3290 nM. For the same molecule, the GI50 (MDA-MB-435) was 1560 nM, the TGI (MDA-MB-435) was 3050 nM and the GI50 (SK-OV-3 ovarian) was 1800 nM. The TGI (SK-OV-3 ovarian) was 3240 nM, the GI50 (SNB-75 CNS) was 1500 nM and the TGI (SNB-75 CNS) was 2900 nM. For the same molecule, the GI50 (SF-268 CNS) was 1830 nM, the TGI (SF-268 CNS) was 4040 nM and the GI50 (OVCAR-4 ovarian) was 1390 nM. It also gave a TGI (OVCAR-4 ovarian) of 2940 nM, a GI50 (NCI-H226 lung) of 1830 nM and a TGI (NCI-H226 lung) of 3830 nM. It also gave a GI50 (ACHN renal) of 1440 nM, a TGI (ACHN renal) of 2750 nM and a GI50 (HCT-15 colon) of 1490 nM. It also gave a TGI (HCT-15 colon) of 2990 nM, a GI50 (COLO 205 colon) of 1720 nM and a TGI (COLO 205 colon) of 3540 nM. It also gave a GI50 (RXF 393 renal) of 1450 nM, a TGI (RXF 393 renal) of 2920 nM and a GI50 (A549 NSCLC) of 1430 nM. It also gave a TGI (A549 NSCLC) of 4500 nM, a GI50 (UACC-62 melanoma) of 1690 nM and a TGI (UACC-62 melanoma) of 3190 nM. The GI50 (HCT-116 colon) was 526 nM, the TGI (HCT-116 colon) was 2000 nM and the GI50 (RPMI-8226 leukemia) was 1970 nM. For the same molecule, the TGI (RPMI-8226 leukemia) was 4550 nM, the GI50 (HCC-2998 colon) was 1740 nM and the TGI (HCC-2998 colon) was 3400 nM. The GI50 (MOLT-4 leukemia) was 2480 nM, the TGI (MOLT-4 leukemia) was 5570 nM and the GI50 (NCI-H522 lung) was 1440 nM. For the same molecule, the TGI (NCI-H522 lung) was 3550 nM, the GI50 (SR leukemia) was 1020 nM and the TGI (SR leukemia) was 4020 nM. For the same molecule, the GI50 (UO-31 renal) was 1300 nM, the TGI (UO-31 renal) was 2600 nM and the GI50 (EKVX NSCLC) was 2080 nM. It also gave a TGI (EKVX NSCLC) of 7380 nM, a GI50 (NCI-H460 lung) of 1130 nM and a TGI (NCI-H460 lung) of 2580 nM. For the same molecule, the GI50 (MALME-3M melanoma) was 1620 nM, the TGI (MALME-3M melanoma) was 3170 nM and the GI50 (PC-3 prostate) was 1690 nM. The TGI (PC-3 prostate) was 3940 nM, the GI50 (MCF7 breast) was 1530 nM and the TGI (MCF7 breast) was 3130 nM. For the same molecule, the GI50 (SK-MEL-2 melanoma) was 1840 nM, the TGI (SK-MEL-2 melanoma) was 3540 nM and the GI50 (TK-10 renal) was 1620 nM. The TGI (TK-10 renal) was 2990 nM, the GI50 (OVCAR-5 ovarian) was 1640 nM and the TGI (OVCAR-5 ovarian) was 3530 nM. It also gave a GI50 (IGROV1 ovarian) of 1640 nM, a TGI (IGROV1 ovarian) of 3280 nM and a GI50 (U251 CNS) of 893 nM. For the same molecule, the TGI (U251 CNS) was 2280 nM, the GI50 (SW-620 colon) was 1400 nM and the TGI (SW-620 colon) was 3000 nM.

From PubChem BioAssay (NCI)
